How the values were obtained:
PBMC = assay: Inhibition of LPS-induced IL6 production in human PBMC after 18 to 24 hrs by immunoassay; format: functional, cell-based
Blood = assay: Inhibition of LPS-induced IL6 production in human whole blood after 24 hrs by immunoassay; format: functional, tissue-based
Hepatocyte [1] = assay: Clearance in human hepatocytes assessed per gram of tissue at 1 uM by LC-MS/MS analysis; format: ADME, cell-based
Hepatocyte [2] = assay: Clearance in rat hepatocytes assessed per gram of tissue at 1 uM by LC-MS/MS analysis; format: ADME, cell-based
[3] = Clearance in dog hepatocytes assessed per gram of tissue at 1 uM by LC-MS/MS analysis; format: ADME, cell-based, Canis lupus familiaris, Hepatocyte
[4] = target: ATPase family AAA domain-containing protein 2 (Homo sapiens, UniProt Q6PL18); assay: Inhibition of human ATAD2 by BROMOscan assay
[5] = target: Bromodomain adjacent to zinc finger domain protein 2B (Homo sapiens, UniProt Q9UIF8); assay: Inhibition of BAZ2B (unknown origin) by BROMOscan assay
Sequence of Bromodomain adjacent to zinc finger domain protein 2B (Q9UIF8 whole entry, the tested form may be a part): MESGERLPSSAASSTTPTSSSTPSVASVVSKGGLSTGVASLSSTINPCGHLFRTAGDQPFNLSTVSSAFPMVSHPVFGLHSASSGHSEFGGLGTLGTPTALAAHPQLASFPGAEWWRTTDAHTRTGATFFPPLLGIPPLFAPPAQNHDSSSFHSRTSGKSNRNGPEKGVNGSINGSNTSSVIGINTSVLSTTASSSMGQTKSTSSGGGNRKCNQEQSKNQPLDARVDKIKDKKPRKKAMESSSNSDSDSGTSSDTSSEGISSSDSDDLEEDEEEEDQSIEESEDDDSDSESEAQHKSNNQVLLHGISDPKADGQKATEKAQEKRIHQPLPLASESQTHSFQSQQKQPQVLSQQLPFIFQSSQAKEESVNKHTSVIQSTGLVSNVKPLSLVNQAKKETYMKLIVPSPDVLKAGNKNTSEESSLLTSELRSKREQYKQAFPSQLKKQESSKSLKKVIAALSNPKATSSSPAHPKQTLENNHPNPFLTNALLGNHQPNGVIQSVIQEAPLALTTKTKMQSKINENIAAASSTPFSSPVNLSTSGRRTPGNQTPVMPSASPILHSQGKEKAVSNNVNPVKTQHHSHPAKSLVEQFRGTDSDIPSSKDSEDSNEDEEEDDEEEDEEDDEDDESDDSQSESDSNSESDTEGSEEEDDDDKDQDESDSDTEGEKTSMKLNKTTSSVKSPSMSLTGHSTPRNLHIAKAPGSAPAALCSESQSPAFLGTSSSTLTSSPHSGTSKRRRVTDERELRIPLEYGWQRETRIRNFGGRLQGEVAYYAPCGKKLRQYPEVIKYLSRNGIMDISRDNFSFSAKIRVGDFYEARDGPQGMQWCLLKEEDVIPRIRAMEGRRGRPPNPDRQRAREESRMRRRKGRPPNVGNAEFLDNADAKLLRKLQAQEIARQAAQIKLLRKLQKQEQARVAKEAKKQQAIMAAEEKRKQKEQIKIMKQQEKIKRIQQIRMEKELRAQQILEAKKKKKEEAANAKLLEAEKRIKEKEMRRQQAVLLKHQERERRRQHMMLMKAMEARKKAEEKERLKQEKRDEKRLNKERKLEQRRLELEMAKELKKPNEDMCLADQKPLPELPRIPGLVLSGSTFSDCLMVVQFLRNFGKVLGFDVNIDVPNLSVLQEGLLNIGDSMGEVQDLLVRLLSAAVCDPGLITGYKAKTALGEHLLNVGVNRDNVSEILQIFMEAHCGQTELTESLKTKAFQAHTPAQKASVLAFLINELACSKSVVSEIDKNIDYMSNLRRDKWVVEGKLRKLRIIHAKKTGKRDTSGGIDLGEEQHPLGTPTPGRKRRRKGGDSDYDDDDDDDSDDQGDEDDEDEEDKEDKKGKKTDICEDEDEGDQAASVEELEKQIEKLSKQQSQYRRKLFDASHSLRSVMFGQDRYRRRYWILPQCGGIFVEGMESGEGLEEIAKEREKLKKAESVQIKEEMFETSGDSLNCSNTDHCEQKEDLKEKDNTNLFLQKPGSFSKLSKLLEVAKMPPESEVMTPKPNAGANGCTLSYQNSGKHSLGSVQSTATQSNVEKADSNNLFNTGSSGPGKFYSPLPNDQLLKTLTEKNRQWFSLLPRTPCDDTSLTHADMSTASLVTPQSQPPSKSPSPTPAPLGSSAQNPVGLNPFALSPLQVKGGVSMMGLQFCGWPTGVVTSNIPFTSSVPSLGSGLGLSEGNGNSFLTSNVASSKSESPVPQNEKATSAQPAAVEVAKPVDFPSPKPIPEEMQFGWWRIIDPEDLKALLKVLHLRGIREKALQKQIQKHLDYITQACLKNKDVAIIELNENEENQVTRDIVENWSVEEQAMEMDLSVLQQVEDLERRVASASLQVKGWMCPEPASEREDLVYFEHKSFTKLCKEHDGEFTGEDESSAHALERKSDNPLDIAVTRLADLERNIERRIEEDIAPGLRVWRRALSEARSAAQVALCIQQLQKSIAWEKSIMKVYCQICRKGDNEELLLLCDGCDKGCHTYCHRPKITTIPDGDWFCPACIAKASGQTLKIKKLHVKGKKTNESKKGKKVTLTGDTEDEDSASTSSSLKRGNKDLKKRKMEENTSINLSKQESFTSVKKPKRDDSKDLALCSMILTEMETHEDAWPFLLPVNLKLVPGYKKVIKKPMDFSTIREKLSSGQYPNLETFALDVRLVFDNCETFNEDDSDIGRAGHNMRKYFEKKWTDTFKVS

[6] = target: Bromodomain-containing protein 2 (Homo sapiens, UniProt P25440); assay: Inhibition of human BRD2 bromodomain 1 by BROMOscan assay
[7] = target: Bromodomain-containing protein 9 (Homo sapiens, UniProt Q9H8M2); assay: Inhibition of human BRD9 by BROMOscan assay
Sequence of Bromodomain-containing protein 9 (Q9H8M2 whole entry): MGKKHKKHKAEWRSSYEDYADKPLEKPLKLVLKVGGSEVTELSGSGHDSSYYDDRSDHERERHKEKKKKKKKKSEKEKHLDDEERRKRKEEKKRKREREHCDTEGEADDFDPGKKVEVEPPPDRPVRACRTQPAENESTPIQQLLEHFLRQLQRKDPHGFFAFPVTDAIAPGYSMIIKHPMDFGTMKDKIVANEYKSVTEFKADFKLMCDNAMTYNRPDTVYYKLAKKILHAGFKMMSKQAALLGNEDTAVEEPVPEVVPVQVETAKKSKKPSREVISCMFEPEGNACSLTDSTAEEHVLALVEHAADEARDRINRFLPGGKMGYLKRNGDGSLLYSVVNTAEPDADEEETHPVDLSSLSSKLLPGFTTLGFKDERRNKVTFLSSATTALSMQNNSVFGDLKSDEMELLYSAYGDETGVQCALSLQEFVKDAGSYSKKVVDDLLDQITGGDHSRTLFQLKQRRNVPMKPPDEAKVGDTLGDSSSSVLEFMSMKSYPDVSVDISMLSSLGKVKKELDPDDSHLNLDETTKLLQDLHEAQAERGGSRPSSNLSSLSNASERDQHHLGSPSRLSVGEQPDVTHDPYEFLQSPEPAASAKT

[8] = target: Bromodomain-containing protein 7 (Homo sapiens, UniProt Q9NPI1); assay: Inhibition of human BRD7 by BROMOscan assay
Sequence of Bromodomain-containing protein 7 (Q9NPI1 whole entry): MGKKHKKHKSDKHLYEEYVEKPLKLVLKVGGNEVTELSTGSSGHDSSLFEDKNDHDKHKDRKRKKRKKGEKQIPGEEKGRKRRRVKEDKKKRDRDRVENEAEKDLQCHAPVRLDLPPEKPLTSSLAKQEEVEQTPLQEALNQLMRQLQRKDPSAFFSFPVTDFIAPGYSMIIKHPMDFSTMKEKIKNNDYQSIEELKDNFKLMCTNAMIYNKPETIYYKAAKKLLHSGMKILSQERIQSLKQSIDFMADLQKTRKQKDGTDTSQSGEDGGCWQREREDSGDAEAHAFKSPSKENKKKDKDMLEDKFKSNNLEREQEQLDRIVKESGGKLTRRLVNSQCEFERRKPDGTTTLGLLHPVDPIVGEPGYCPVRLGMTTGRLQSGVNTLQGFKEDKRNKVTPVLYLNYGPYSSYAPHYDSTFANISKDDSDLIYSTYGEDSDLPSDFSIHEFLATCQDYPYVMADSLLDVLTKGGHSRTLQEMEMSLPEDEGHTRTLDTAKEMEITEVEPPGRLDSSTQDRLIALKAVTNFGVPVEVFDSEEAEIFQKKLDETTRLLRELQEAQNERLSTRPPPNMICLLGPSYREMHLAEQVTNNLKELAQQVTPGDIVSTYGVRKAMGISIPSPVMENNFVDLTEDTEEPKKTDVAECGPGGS

[9] = target: Bromodomain testis-specific protein (Homo sapiens, UniProt Q58F21); assay: Inhibition of human BRDT bromodomain 2 by BROMOscan assay
Peregrin = Peregrin (Homo sapiens, UniProt P55201); assay: Inhibition of human BRPF1 by BROMOscan assay
CREB-binding protein = CREB-binding protein (Homo sapiens, UniProt Q92793); assay: Inhibition of human CREBBP by BROMOscan assay
Protein polybromo-1 = Protein polybromo-1 (Homo sapiens, UniProt Q86U86); assay: Inhibition of human PBRM1 bromodomain 1 by BROMOscan assay
Sequence of Protein polybromo-1 (Q86U86 whole entry): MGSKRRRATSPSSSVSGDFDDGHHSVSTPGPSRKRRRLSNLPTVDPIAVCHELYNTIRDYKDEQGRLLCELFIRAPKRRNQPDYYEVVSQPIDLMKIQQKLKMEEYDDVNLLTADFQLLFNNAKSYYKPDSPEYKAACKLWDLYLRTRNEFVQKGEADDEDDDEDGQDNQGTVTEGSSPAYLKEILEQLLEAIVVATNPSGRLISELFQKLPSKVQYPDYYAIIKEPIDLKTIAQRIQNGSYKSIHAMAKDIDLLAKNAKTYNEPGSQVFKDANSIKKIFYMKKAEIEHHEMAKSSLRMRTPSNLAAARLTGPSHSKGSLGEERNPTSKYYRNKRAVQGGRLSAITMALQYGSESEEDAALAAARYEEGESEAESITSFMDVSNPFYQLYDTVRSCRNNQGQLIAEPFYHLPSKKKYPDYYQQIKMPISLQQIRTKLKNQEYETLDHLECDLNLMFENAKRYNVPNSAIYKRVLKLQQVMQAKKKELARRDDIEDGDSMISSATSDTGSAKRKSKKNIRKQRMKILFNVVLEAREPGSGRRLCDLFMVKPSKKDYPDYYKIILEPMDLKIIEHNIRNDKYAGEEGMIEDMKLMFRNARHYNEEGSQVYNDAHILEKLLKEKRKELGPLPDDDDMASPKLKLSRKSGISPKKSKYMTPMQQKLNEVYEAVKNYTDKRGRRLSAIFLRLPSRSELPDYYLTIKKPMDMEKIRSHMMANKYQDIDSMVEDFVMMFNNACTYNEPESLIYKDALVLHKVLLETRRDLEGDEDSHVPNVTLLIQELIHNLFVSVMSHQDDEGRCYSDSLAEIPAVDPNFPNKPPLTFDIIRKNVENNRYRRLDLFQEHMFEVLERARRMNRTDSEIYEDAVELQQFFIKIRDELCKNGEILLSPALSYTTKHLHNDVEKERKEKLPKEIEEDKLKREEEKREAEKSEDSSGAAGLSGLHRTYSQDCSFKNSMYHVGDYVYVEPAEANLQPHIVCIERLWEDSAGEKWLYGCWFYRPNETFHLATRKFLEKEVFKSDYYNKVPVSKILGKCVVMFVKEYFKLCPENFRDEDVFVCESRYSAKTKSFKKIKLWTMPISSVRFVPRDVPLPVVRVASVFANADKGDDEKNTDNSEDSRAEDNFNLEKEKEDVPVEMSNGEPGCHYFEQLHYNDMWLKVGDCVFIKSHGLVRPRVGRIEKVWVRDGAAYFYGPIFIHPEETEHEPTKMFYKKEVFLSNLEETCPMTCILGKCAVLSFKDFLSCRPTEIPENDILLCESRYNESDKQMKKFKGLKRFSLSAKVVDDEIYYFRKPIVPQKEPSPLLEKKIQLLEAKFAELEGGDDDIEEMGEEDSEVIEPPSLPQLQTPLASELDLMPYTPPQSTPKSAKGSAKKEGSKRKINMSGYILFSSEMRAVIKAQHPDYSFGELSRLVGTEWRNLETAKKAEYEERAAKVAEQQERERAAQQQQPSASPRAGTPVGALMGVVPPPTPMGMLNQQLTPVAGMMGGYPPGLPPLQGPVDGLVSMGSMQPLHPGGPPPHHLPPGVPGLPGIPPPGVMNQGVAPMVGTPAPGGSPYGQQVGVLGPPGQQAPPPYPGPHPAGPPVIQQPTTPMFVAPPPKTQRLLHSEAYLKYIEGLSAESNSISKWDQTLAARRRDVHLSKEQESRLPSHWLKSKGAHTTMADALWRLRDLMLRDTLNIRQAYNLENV

[10] = target: Transcription initiation factor TFIID subunit 1 (Homo sapiens, UniProt P21675); assay: Inhibition of human TAF1 by BROMOscan assay
[11] = Permeability of the compound by PAMPA; format: ADME; conditions: read-out: permeability
[12] = Fraction unbound in dog blood by rapid equilibrium dialysis method; format: ADME, tissue-based, Canis lupus familiaris
[13] = Volume of distribution at steady state in Balb/c mouse at 10 mg/kg, iv as bolus dose; format: ADME, organism-based; design: dose 10 mg/kg, route intravenous; conditions: in vivo, read-out: Vdss
[14] = Blood clearance in rat at 1 mg/kg, iv as infusion and 3 mg/kg, po; format: ADME, organism-based; conditions: whole blood
[15] = Volume of distribution at steady state in rat at 1 mg/kg, iv as infusion and 3 mg/kg, po; format: ADME, organism-based; conditions: in vivo, read-out: Vdss
[16] = AUC (0 to t) in rat at 3 mg/kg, po; format: ADME, organism-based; design: dose 3 mg/kg, route oral; conditions: plasma
[17] = Blood clearance in beagle dog at 1 mg/kg, iv as infusion and 3 mg/kg, po; format: ADME, organism-based, Canis lupus familiaris; conditions: whole blood
[18] = Terminal half life in beagle dog at 1 mg/kg, iv as infusion; format: ADME, organism-based, Canis lupus familiaris; design: dose 1 mg/kg, route intravenous; conditions: in vivo, read-out: beta t1/2 (converted)
[19] = Oral bioavailability in beagle dog at 3 mg/kg; format: ADME, organism-based, Canis lupus familiaris; conditions: in vivo
[20] = Blood clearance in Cynomolgus monkey at 1 mg/kg, iv as infusion and 3 mg/kg, po; format: ADME, organism-based, Macaca fascicularis; conditions: whole blood
[21] = Terminal half life in Cynomolgus monkey at 1 mg/kg, iv as infusion; format: ADME, organism-based, Macaca fascicularis; design: dose 1 mg/kg, route intravenous; conditions: in vivo, read-out: beta t1/2 (converted)
[22] = AUC (0 to t) in Cynomolgus monkey at 2 mg/kg, po; format: ADME, organism-based, Macaca fascicularis; design: dose 2 mg/kg, route oral; conditions: plasma
Mus musculus = assay: Antiinflammatory activity in septic shock Balb/c mouse model assessed as mouse survival at 10 mg/kg, iv as single dose post LPS challenge measured after 5 days post treatment relative to vehicle-treated control; format: functional; conditions: 120 h

## CC(=O)N1c2ccc(-c3ccc(C(=O)O)cc3)cc2[C@H](Nc2ccc(Cl)cc2)C[C@@H]1C
PBMC
  IC50: 0.0501 µM
Blood
  IC50: 0.398 µM
Hepatocyte [1]
  CLH: < 0.85 mL/min/g
Hepatocyte [2]
  CLH: < 0.85 mL/min/g
[3]
  CLH: < 1.7 mL/min/g
[4]
  IC50: > 31.6 µM
[5]
  IC50: > 31.6 µM
[6]
  IC50: > 31.6 µM
[7]
  IC50: > 31.6 µM
[8]
  IC50: > 0.00126 µM
[9]
  IC50: 31.6 µM
Peregrin
  IC50: > 0.00398 µM
CREB-binding protein
  IC50: 31.6 µM
Protein polybromo-1
  IC50: 0.631 µM
[10]
  IC50: 31.6 µM
[11]
  Papp: 9.5 ×10⁻⁶ cm/s
[12]
  fraction unbound: 0.065
[13]
  Vd: 0.48 L/kg
[14]
  clearance: 26 mL/min/kg
[15]
  Vd: 2 L/kg
[16]
  AUC(0-t): 539 ng·h/mL
[17]
  clearance: 6 mL/min/kg
[18]
  half-life: 1.8 h
[19]
  bioavailability: 80%
[20]
  clearance: 3 mL/min/kg
[21]
  half-life: 2.7 h
[22]
  AUC(0-t): 11000 ng·h/mL
Mus musculus
  survival at 10 mg/kg: 56%
